According to ChEMBL document CHEMBL1201862, “PubChem BioAssay data set” (2004):
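Where inhibition never reached the appropriate level, the endpoint shown equals the highest concentration tested. Otherwise, values were interpolated linearly from a five-concentration, 48-hour dose response in 96-well plates. At the GI50, growth is halved.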 Activity calls are given as the source filed them. Cut-off read from the data, not from the text of the source: active = GI50 up to about 1.1 µM and inactive = higher.

What was measured:
Test in all cases: NCI tumour cell line growth inhibition, 48 h
[1] = system: 786-0
[2] = system: ACHN
[3] = system: CAKI-1
[4] = system: CCRF-CEM
[5] = system: COLO 205
[6] = system: HL-60
[7] = system: HT-29
[8] = system: MCF7
[9] = system: MOLT-4
[10] = system: NCI-H460
[11] = system: NCI-H522
[12] = system: NCI/ADR-RES
[13] = system: OVCAR-5
[14] = system: OVCAR-8
[15] = system: RXF 393
[16] = system: SF-268
[17] = system: SF-295
[18] = system: SK-MEL-28
[19] = system: SW-620
[20] = system: UACC-257

SMILES	GI50 [1]	GI50 [2]	GI50 [3]	GI50 [4]	GI50 [5]	GI50 [6]	GI50 [7]	GI50 [8]	GI50 [9]	GI50 [10]	GI50 [11]	GI50 [12]	GI50 [13]	GI50 [14]	GI50 [15]	GI50 [16]	GI50 [17]	GI50 [18]	GI50 [19]	GI50 [20]
COc1cnc2oc3ccc(O)cc3c2c1-c1ccccc1	21.9 µM (inactive)	> 100 µM (inactive)	> 100 µM (inactive)	59.3 µM (inactive)	30.6 µM (inactive)	> 100 µM (inactive)	85.1 µM (inactive)	39.7 µM (inactive)	> 100 µM (inactive)	> 100 µM (inactive)	> 100 µM (inactive)	30.3 µM (inactive)	24.1 µM (inactive)	55.3 µM (inactive)	> 100 µM (inactive)	4 µM (inactive)	83 µM (inactive)	> 100 µM (inactive)	> 100 µM (inactive)	88.5 µM (inactive)
Cc1cc(O)c2c(c1)CC(O)C1=C2C(=O)c2c(O)ccc(OC3CC(O)C(OC4CC(OC5CCC(O)C(C)O5)C(O)C(C)O4)C(C)O3)c2C1=O (stereo not given)	1.42 µM (inactive)	1.58 µM (inactive)	1.71 µM (inactive)	0.203 µM (active)	1.39 µM (inactive)	0.386 µM (active)	2.27 µM (inactive)	1.39 µM (inactive)	0.305 µM (active)	2.16 µM (inactive)	0.964 µM (active)	2.93 µM (inactive)	3.81 µM (inactive)	1.65 µM (inactive)	1.46 µM (inactive)	1.74 µM (inactive)	2.34 µM (inactive)	1.92 µM (inactive)	0.518 µM (active)	1.57 µM (inactive)
COc1ccc(OC)c([N+](=O)[O-])c1-c1nc2sccn2c1/C=N/N=C(N)N	> 100 µM (inactive)	> 100 µM (inactive)	> 100 µM (inactive)	34.2 µM (inactive)	29 µM (inactive)	79.6 µM (inactive)	63.8 µM (inactive)	21.5 µM (inactive)	26.9 µM (inactive)	76.6 µM (inactive)	58.2 µM (inactive)	> 100 µM (inactive)	> 100 µM (inactive)	> 100 µM (inactive)	> 100 µM (inactive)	44.6 µM (inactive)	> 100 µM (inactive)	17.7 µM (inactive)	93.3 µM (inactive)	69.5 µM (inactive)
NCCCN(CCCCN(CCCN)CCCc1ccccc1)CCCc1ccccc1	1.7 µM (inactive)	2.68 µM (inactive)	2.15 µM (inactive)	2.49 µM (inactive)	1.56 µM (inactive)	1.15 µM (inactive)	1.85 µM (inactive)	1.96 µM (inactive)	2 µM (inactive)	1.42 µM (inactive)	2.09 µM (inactive)	20.1 µM (inactive)	11 µM (inactive)	8.71 µM (inactive)	2.37 µM (inactive)	3.07 µM (inactive)	1.69 µM (inactive)	1.51 µM (inactive)	2.86 µM (inactive)	1.79 µM (inactive)
O=C1NCN(c2ccccc2)C12CCN(CCc1ccc3[nH]c(=S)[nH]c3c1)CC2	33.5 µM (inactive)	> 100 µM (inactive)	> 100 µM (inactive)	3.15 µM (inactive)	16.3 µM (inactive)	29.1 µM (inactive)	29.3 µM (inactive)	28.5 µM (inactive)	41.4 µM (inactive)	31.8 µM (inactive)	43.4 µM (inactive)	> 100 µM (inactive)	> 100 µM (inactive)	51.9 µM (inactive)	13 µM (inactive)	56.9 µM (inactive)	51.3 µM (inactive)	4.12 µM (inactive)	11.9 µM (inactive)	0.075 µM (active)
CC(=O)/N=C1\NC(=O)/C(=C/c2ccccc2Cl)N1C	> 100 µM (inactive)	> 100 µM (inactive)	> 100 µM (inactive)	> 100 µM (inactive)	> 100 µM (inactive)	> 100 µM (inactive)	> 100 µM (inactive)	> 100 µM (inactive)	> 100 µM (inactive)	> 100 µM (inactive)	> 100 µM (inactive)	43.2 µM (inactive)	> 100 µM (inactive)	> 100 µM (inactive)	> 100 µM (inactive)	> 100 µM (inactive)	> 100 µM (inactive)	> 100 µM (inactive)	> 100 µM (inactive)	> 100 µM (inactive)
O=C(N/N=C/c1ccc([N+](=O)[O-])cc1)c1cccc2nc3ccccc3nc12	> 100 µM (inactive)	> 38.5 µM (inactive)	> 100 µM (inactive)	> 92.5 µM (inactive)	2.65 µM (inactive)	> 100 µM (inactive)	> 100 µM (inactive)	> 100 µM (inactive)	> 36.8 µM (inactive)	1.5 µM (inactive)	> 100 µM (inactive)	> 100 µM (inactive)	> 86.1 µM (inactive)	> 90.8 µM (inactive)	33.3 µM (inactive)	> 58.9 µM (inactive)	78.2 µM (inactive)	> 100 µM (inactive)	> 100 µM (inactive)	> 100 µM (inactive)
CC1(C)OC[C@@H](C[C@H](O)COCc2ccccc2)O1	> 100 µM (inactive)	> 100 µM (inactive)	> 100 µM (inactive)	> 100 µM (inactive)	> 100 µM (inactive)	> 100 µM (inactive)	> 100 µM (inactive)	> 100 µM (inactive)	> 100 µM (inactive)	> 100 µM (inactive)	> 100 µM (inactive)	> 100 µM (inactive)	> 100 µM (inactive)	> 100 µM (inactive)	> 100 µM (inactive)	> 100 µM (inactive)	> 100 µM (inactive)	> 100 µM (inactive)	> 100 µM (inactive)	> 100 µM (inactive)
CCN(CC)CCNC(=O)c1cn2c(ccc3sc4ccccc4c(=O)c32)n1	4.1 µM (inactive)	3.64 µM (inactive)	10 µM (inactive)	2.74 µM (inactive)	6.25 µM (inactive)	5.26 µM (inactive)	6.89 µM (inactive)	5.87 µM (inactive)	0.502 µM (active)	1.03 µM (active)	9.16 µM (inactive)	11.2 µM (inactive)	8.57 µM (inactive)	12.3 µM (inactive)	8.22 µM (inactive)	6.93 µM (inactive)	10.5 µM (inactive)	10.4 µM (inactive)	6.25 µM (inactive)	14.3 µM (inactive)
COC(=O)[C@@]12CC3CN(Cc4c1[nH]c1ccccc41)C2CC3=O	> 100 µM (inactive)	> 100 µM (inactive)	> 100 µM (inactive)	> 100 µM (inactive)	> 100 µM (inactive)	> 100 µM (inactive)	> 100 µM (inactive)	> 100 µM (inactive)	> 100 µM (inactive)	> 100 µM (inactive)	> 100 µM (inactive)	> 100 µM (inactive)	> 100 µM (inactive)	> 100 µM (inactive)	> 100 µM (inactive)	> 100 µM (inactive)	> 100 µM (inactive)	> 100 µM (inactive)	> 100 µM (inactive)	> 100 µM (inactive)
